PubChem BioAssay AID1963438 (Molecular Pharmacology Branch, DTP, NCI, 2024)

Tested on: NCI-H510 multicellular tumor spheroid growth, % test/control
Experiment: Anticancer human tumor NCI-H510 cell line growth inhibition [Asc];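 also: spheroids exposed to agents for 7 days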;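 as to viability, T/C: 100% = DMSO vehicle control wells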
Settings: for IC50: curve of first compound; for viability, T/C: stronger effect = lower value
In short: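 Tumor cells were grown as complex spheroids with human endothelial cells (HUVEC) and human mesenchymal stem cells as stroma. Agents were tested alone and in combination, in half-log steps down from the clinical Cmax, or from 10 microM where Cmax was unknown.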

[1] = second compound 0.03 µM, first compound 0.0316 µM
[2] = second compound 0.03 µM, first compound 0.1 µM
[3] = second compound 0.03 µM, first compound 0.316 µM
[4] = second compound 0.03 µM, first compound 1 µM
[5] = second compound 0.03 µM, first compound 3.16 µM
[6] = second compound 0.03 µM, first compound 10 µM
[7] = second compound 0.0949 µM, first compound 0.0316 µM
[8] = second compound 0.0949 µM, first compound 0.1 µM
[9] = second compound 0.0949 µM, first compound 0.316 µM
[10] = second compound 0.0949 µM, first compound 1 µM
[11] = second compound 0.0949 µM, first compound 3.16 µM
[12] = second compound 0.0949 µM, first compound 10 µM
[13] = second compound 0.3 µM, first compound 0.0316 µM
[14] = second compound 0.3 µM, first compound 0.1 µM
[15] = second compound 0.3 µM, first compound 0.316 µM
[16] = second compound 0.3 µM, first compound 1 µM
[17] = second compound 0.3 µM, first compound 3.16 µM
[18] = second compound 0.3 µM, first compound 10 µM
[19] = second compound 0.949 µM, first compound 0.0316 µM
[20] = second compound 0.949 µM, first compound 0.1 µM
[21] = second compound 0.949 µM, first compound 0.316 µM
[22] = second compound 0.949 µM, first compound 1 µM
[23] = second compound 0.949 µM, first compound 3.16 µM
[24] = second compound 0.949 µM, first compound 10 µM
[25] = second compound 3 µM, first compound 0.0316 µM
[26] = second compound 3 µM, first compound 0.1 µM
[27] = second compound 3 µM, first compound 0.316 µM
[28] = second compound 3 µM, first compound 1 µM
[29] = second compound 3 µM, first compound 3.16 µM
[30] = second compound 3 µM, first compound 10 µM

SMILES	IC50 (second compound 0.03 µM) [µM]	IC50 (second compound 0.0949 µM) [µM]	IC50 (second compound 0.3 µM) [µM]	IC50 (second compound 0.949 µM) [µM]	IC50 (second compound 3 µM) [µM]	viability, T/C [1] [%]	viability, T/C [2] [%]	viability, T/C [3] [%]	viability, T/C [4] [%]	viability, T/C [7] [%]	viability, T/C [8] [%]	viability, T/C [9] [%]	viability, T/C [10] [%]	viability, T/C [13] [%]	viability, T/C [14] [%]	viability, T/C [15] [%]	viability, T/C [16] [%]	viability, T/C [19] [%]	viability, T/C [20] [%]	viability, T/C [21] [%]	other results
C#Cc1c(F)ccc2cc(O)cc(-c3ncc4c(N5CC6CCC(C5)N6)nc(OCC56CCCN5CC(F)C6)nc4c3F)c12 (stereo not given) + CCN1C(C(=O)NC23CCC(C(=O)O)(CC2)CC3)C(c2cccc(Cl)c2F)C2(C(=O)Nc3cc(Cl)ccc32)C12CCCCC2	> 10	> 10	> 10	> 10	> 10	118	98.2	92.6	92.1	93.8	100	103	100	109	113	92.5	107	93	108	98	viability, T/C [5]: 105%; viability, T/C [6]: 110%; viability, T/C [11]: 103%; viability, T/C [12]: 95.4%; viability, T/C [17]: 91.4%; viability, T/C [18]: 87.6%; viability, T/C [22]: 109%; viability, T/C [23]: 106%; viability, T/C [24]: 95.1%; viability, T/C [25]: 110%; viability, T/C [26]: 107%; viability, T/C [27]: 114%; viability, T/C [28]: 99.9%; viability, T/C [29]: 101%; viability, T/C [30]: 102%
C=C(F)C(=O)N1CCN(c2nc(OCC3CCCN3C)nc3c2CCN(c2cccc4cccc(Cl)c24)C3)CC1CC#N (stereo not given) + CCN1C(C(=O)NC23CCC(C(=O)O)(CC2)CC3)C(c2cccc(Cl)c2F)C2(C(=O)Nc3cc(Cl)ccc32)C12CCCCC2	1.17	1.1	1.28	0.717	1.18	93.8	103	88.3	58.2	78.5	89	100	54.6	106	88	109	62.5	95.3	91.4	88.5	viability, T/C [5]: 1.61%; viability, T/C [6]: 0.12%; viability, T/C [11]: 3.81%; viability, T/C [12]: 0.11%; viability, T/C [17]: 7.29%; viability, T/C [18]: 0.11%; viability, T/C [22]: 34.3%; viability, T/C [23]: 4.93%; viability, T/C [24]: 0.1%; viability, T/C [25]: 87.5%; viability, T/C [26]: 121%; viability, T/C [27]: 95%; viability, T/C [28]: 52.5%; viability, T/C [29]: 20.7%; viability, T/C [30]: 0.18%
C=CC(=O)N1CCN(c2nc(=O)n(-c3c(C)ccnc3C(C)C)c3nc(-c4c(O)cccc4F)c(F)cc23)C(C)C1 (stereo not given) + CCN1C(C(=O)NC23CCC(C(=O)O)(CC2)CC3)C(c2cccc(Cl)c2F)C2(C(=O)Nc3cc(Cl)ccc32)C12CCCCC2	> 10	> 10	> 10	> 10	> 10	70.7	108	81	100	117	117	98.5	105	90.3	103	91.5	101	100	107	109	viability, T/C [5]: 90.2%; viability, T/C [6]: 98.3%; viability, T/C [11]: 96.8%; viability, T/C [12]: 89.5%; viability, T/C [17]: 98.4%; viability, T/C [18]: 95.6%; viability, T/C [22]: 104%; viability, T/C [23]: 91.3%; viability, T/C [24]: 92.4%; viability, T/C [25]: 116%; viability, T/C [26]: 97.8%; viability, T/C [27]: 85.3%; viability, T/C [28]: 101%; viability, T/C [29]: 103%; viability, T/C [30]: 79.2%
CNC(C)C(=O)NC1CN(S(=O)(=O)c2cccc(S(=O)(=O)N3CCC4CCC(C(=O)NC(c5ccccc5)c5ccccc5)N4C(=O)C(NC(=O)C(C)NC)C3)c2)CCC2CCC(C(=O)NC(c3ccccc3)c3ccccc3)N2C1=O (stereo not given) + CCN1C(C(=O)NC23CCC(C(=O)O)(CC2)CC3)C(c2cccc(Cl)c2F)C2(C(=O)Nc3cc(Cl)ccc32)C12CCCCC2	> 1	> 1	> 1	> 1	> 1	96.8	101	95.6	97.8	87.8	77.2	105	83.5	106	93.4	89.8	83.7	118	96.6	102	viability, T/C (second compound 0.03 µM, first compound 0.00316 µM): 96.8%; viability, T/C (second compound 0.03 µM, first compound 0.01 µM): 81.6%; viability, T/C (second compound 0.0949 µM, first compound 0.00316 µM): 98.5%; viability, T/C (second compound 0.0949 µM, first compound 0.01 µM): 104%; viability, T/C (second compound 0.3 µM, first compound 0.00316 µM): 81.6%; viability, T/C (second compound 0.3 µM, first compound 0.01 µM): 106%; viability, T/C (second compound 0.949 µM, first compound 0.00316 µM): 110%; viability, T/C (second compound 0.949 µM, first compound 0.01 µM): 99.8%; viability, T/C [22]: 81.7%; viability, T/C (second compound 3 µM, first compound 0.00316 µM): 86.5%; viability, T/C (second compound 3 µM, first compound 0.01 µM): 92%; viability, T/C [25]: 117%; viability, T/C [26]: 84.1%; viability, T/C [27]: 87.3%; viability, T/C [28]: 110%
